# Source: ChEMBL document CHEMBL4414648, “Novel Benzohydroxamate-Based Potent and Selective Histone Deacetylase 6 (HDAC6) Inhibitors Bearing a Pentaheterocyclic Scaffold: Design, Synthesis, and Biological Evaluation” (J Med Chem, 2019)
# Columns and labels:
# [1] = Selectivity ratio of IC50 for N-terminal His-tagged human HDAC11 expressed in baculovirus expression system to IC50 for human N-terminal GST-tagged HDAC6 expressed in baculovirus infected sf9 insect cells
# [2] = Selectivity ratio of IC50 for C-terminal His-tagged human HDAC8 expressed in baculovirus infected sf9 insect cells to IC50 for human N-terminal GST-tagged HDAC6 expressed in baculovirus infected sf9 insect cells
# [3] = Stability in rat plasma assessed as parent compound remaining at 100 uM after 4 hrs by LC-MS/MS analysis; type: ADME, cell-free; settings: read-out: Stability
# 697 = experiment: Cytotoxicity against human 697 cells after 48 hrs by CellTiter 96 aqueous one solution assay; type: cell-based; settings: Homo sapiens, 697, 48 h
# [4] = Stability in human liver S9 fraction assessed as parent compound remaining at 5 uM after 90 mins in presence of NADPH by LC-MS/MS analysis; type: ADME, subcellular; settings: read-out: Stability
# [5] = Selectivity ratio of IC50 for N-terminal Flag-tagged human HDAC10 (2 to 631 residues) expressed in baculovirus infected sf9 insect cells to IC50 for human N-terminal GST-tagged HDAC6 expressed in baculovirus infected sf9 insect cells
# [6] = Selectivity ratio of IC50 for human HDAC4 expressed in baculovirus infected sf9 insect cells to IC50 for human N-terminal GST-tagged HDAC6 expressed in baculovirus infected sf9 insect cells
# Histone deacetylase = experiment: Inhibition of HDAC in human 697 cells assessed as increase in H3 acetylation at 1000 nM incubated for 16 hrs by ELISA; type: cell-based; settings: human, 697, 16 h, 1 µM
# [7] = Stability in rat liver S9 fraction assessed as parent compound remaining at 5 uM after 90 mins in presence of NADPH by LC-MS/MS analysis; type: ADME, subcellular; settings: read-out: Stability
# [8] = target: T1, Protein deacetylase HDAC6 (Homo sapiens, UniProt Q9UBN7); experiment: biochemical
# T1 sequence (Q9UBN7 whole entry): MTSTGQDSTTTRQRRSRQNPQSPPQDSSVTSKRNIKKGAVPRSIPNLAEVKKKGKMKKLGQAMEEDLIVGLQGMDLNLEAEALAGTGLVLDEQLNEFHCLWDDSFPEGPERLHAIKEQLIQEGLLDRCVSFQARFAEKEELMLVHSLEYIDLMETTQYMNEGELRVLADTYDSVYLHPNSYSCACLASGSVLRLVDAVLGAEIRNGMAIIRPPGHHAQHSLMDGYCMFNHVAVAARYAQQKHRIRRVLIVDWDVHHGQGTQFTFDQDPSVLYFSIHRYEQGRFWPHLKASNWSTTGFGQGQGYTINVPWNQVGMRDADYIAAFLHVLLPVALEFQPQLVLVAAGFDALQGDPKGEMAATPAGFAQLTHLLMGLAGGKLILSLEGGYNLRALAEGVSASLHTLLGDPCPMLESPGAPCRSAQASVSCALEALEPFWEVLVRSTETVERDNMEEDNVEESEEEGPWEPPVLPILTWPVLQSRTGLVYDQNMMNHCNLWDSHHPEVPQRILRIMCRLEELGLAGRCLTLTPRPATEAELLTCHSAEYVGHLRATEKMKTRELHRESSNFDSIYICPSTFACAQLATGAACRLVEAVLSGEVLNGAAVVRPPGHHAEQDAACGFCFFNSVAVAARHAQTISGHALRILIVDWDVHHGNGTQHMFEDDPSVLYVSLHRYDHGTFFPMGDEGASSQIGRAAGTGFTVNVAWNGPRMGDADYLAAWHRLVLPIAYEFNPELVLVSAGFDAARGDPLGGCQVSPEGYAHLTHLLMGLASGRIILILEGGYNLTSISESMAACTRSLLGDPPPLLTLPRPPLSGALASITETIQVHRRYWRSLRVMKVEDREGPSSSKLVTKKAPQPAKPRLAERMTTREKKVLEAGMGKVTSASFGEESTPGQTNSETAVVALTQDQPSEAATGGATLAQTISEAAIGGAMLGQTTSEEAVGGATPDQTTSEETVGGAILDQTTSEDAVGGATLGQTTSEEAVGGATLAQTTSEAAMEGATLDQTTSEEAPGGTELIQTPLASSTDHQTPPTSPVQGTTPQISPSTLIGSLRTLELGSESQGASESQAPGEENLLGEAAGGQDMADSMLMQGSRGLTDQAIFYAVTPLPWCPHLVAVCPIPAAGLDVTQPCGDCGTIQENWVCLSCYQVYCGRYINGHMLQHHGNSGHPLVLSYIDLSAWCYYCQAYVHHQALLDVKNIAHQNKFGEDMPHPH
# Description: Inhibition of recombinant full length human N-terminal GST-tagged HDAC6 expressed in baculovirus infected sf9 insect cells pretreated with compound followed by Fluor de Lys deacetylase substrate addition by fluorescence method
# [9] = Stability in human plasma assessed as parent compound remaining at 100 uM after 4 hrs by LC-MS/MS analysis; type: ADME, cell-free; settings: read-out: Stability
# [10] = Selectivity ratio of IC50 for N-terminal GST-tagged human HDAC7 (518 to end residues) expressed in baculovirus infected sf9 insect cells to IC50 for human N-terminal GST-tagged HDAC6 expressed in baculovirus infected sf9 insect cells
# [11] = Selectivity ratio of IC50 for C-terminal GST-tagged human HDAC5 to IC50 for human N-terminal GST-tagged HDAC6 expressed in baculovirus infected sf9 insect cells
# [12] = Selectivity ratio of IC50 for C-terminal His-tagged human HDAC9 (604 to 1066 residues) expressed in baculovirus infected sf9 insect cells to IC50 for human N-terminal GST-tagged HDAC6 expressed in baculovirus infected sf9 insect cells
# PBMC = experiment: Cytotoxicity against human PBMC cells after 72 hrs by CellTiter 96 aqueous one solution assay; type: cell-based
# [13] = target: Histone deacetylase 3/Nuclear receptor corepressor 2 (HDAC3/NCoR2) (Homo sapiens, UniProt O15379); experiment: Inhibition of C-terminal His-tagged human HDAC3 (1 to 428 residues)/N-terminal GST tagged human NCOR2 (395 to 489) expressed in baculovirus infected sf9 insect cells pretreated with compound followed by Fluor de Lys deacetylase substrate addition by fluorescence method
# Sequence of Histone deacetylase 3/Nuclear receptor corepressor 2 (HDAC3/NCoR2) (O15379 whole entry, the tested form may be a part): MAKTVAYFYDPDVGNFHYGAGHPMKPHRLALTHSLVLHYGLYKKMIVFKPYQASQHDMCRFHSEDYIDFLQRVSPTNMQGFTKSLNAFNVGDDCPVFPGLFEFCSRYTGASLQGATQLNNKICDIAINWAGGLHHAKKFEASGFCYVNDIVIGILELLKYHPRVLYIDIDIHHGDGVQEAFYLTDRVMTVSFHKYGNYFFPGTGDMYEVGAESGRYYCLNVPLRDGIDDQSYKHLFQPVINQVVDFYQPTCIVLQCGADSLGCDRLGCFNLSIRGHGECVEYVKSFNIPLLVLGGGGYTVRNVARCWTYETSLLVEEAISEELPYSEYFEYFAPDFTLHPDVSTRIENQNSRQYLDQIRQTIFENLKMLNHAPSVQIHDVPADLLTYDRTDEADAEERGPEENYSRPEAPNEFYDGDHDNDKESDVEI
# Sequence of Histone deacetylase 3/Nuclear receptor corepressor 2 (HDAC3/NCoR2) (Q9Y618 whole entry, further chain, the tested form may be a part): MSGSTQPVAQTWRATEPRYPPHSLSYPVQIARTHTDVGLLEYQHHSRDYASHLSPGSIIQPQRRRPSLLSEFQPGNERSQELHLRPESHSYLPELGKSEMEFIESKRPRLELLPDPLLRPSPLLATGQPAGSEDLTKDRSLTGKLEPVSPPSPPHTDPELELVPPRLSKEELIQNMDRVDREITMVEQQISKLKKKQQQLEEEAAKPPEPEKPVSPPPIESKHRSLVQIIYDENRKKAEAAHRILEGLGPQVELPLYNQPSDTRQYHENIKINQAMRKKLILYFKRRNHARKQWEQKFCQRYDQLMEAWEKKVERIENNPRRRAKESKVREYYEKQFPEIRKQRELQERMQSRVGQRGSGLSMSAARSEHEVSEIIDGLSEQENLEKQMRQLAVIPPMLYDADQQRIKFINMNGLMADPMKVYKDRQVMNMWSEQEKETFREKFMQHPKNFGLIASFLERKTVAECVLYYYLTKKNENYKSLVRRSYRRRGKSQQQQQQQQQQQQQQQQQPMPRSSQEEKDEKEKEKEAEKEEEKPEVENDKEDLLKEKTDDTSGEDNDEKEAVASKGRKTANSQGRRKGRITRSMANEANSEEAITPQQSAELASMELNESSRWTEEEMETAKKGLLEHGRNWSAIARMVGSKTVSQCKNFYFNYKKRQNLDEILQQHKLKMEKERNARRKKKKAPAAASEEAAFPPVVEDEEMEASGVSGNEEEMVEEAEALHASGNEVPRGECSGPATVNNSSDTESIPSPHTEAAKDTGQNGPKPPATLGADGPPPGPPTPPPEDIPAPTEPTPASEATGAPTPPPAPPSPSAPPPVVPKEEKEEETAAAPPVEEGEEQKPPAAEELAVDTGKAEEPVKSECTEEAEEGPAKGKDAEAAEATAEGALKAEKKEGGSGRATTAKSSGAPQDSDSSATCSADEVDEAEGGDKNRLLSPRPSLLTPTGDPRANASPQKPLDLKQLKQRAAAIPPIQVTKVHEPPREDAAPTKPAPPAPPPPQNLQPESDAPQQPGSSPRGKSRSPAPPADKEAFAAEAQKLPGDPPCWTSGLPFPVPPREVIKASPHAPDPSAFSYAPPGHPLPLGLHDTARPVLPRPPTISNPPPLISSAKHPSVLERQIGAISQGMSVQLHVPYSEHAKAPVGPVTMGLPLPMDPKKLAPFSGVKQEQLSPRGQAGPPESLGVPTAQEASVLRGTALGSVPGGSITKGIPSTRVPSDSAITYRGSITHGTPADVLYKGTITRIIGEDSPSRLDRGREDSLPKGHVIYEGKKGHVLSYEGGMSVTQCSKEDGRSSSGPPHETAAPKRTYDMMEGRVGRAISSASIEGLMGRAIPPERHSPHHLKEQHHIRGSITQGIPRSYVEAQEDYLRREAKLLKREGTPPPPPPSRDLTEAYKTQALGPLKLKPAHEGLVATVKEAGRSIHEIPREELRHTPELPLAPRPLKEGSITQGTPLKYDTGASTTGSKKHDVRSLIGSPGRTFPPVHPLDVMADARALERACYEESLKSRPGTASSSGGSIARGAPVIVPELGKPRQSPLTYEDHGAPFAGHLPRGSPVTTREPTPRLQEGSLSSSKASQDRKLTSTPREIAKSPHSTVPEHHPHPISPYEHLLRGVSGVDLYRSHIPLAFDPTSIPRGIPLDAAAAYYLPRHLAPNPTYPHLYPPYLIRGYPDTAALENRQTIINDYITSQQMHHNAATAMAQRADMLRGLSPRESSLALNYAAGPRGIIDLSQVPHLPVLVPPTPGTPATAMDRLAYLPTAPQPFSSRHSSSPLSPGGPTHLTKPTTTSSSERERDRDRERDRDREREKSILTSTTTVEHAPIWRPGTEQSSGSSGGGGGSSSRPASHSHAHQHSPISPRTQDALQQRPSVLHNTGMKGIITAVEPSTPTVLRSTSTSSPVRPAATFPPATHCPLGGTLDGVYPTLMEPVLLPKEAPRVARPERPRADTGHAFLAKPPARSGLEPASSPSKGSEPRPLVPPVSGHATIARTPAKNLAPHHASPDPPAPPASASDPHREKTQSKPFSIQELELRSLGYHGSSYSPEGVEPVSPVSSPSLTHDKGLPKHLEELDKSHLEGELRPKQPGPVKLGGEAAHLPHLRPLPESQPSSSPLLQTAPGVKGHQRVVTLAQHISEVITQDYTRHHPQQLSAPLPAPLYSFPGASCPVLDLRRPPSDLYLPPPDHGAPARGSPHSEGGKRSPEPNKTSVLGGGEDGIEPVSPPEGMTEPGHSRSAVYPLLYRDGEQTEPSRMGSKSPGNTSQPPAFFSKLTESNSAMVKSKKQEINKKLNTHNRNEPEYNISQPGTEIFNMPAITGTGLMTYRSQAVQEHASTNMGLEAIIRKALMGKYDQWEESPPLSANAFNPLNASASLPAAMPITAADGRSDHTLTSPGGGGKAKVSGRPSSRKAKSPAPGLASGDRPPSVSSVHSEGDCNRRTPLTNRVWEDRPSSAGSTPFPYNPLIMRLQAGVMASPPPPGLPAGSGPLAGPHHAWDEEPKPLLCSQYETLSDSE
Compound,Ratio IC50 [1],Ratio IC50 [2],"remaining at 4 h, 100 µM [3] [%]",IC50 697 [nM],"remaining at […], 5 µM [4] [%]",Ratio IC50 [5],Ratio IC50 [6],inhibition (INH) (Histone deacetylase),"remaining at […], 5 µM [7] [%]",IC50 [8] [nM],"remaining at 4 h, 100 µM [9] [%]",Ratio IC50 [10],Ratio IC50 [11],Ratio IC50 [12],IC50 (PBMC) [nM],IC50 [13] [nM]
Cc1cc(-c2nnc(Sc3c(F)cc(C(=O)NO)cc3F)n2C)nn1C,294,19,80,> 1000,76,497,48,Active,30,6,92,48,42,24,> 1000,–
O=C(NO)c1ccc(Cc2nnc[nH]2)cc1,–,–,–,–,–,–,–,–,–,198,–,–,–,–,–,2900
Cn1c(Sc2c(F)cc(C(=O)NO)cc2F)nnc1-c1cccnn1,278,34,98,> 1000,79,372,33,Active,58,13,100,15,34,16,> 1000,–
Nc1ccc(-c2nnn(Cc3c(F)cc(C(=O)NO)cc3F)n2)cc1,86,230,77,> 1000,74,138,162,Active,48,3,88,325,144,118,> 1000,–
O=C(NO)c1ccccc1 [BENZOHYDROXAMATE],–,–,–,–,–,–,–,–,–,2370,–,–,–,–,–,71600
